Test results reported in patent US9597280B2, “Cosmetic compositions comprising microalgal oil” (TerraVia Holdings, Inc., priority 2013, dated 2017).

Experiments:
MatTek's EpiDerm tissue [1] = test: Thymine dimer formation in EpiDerm skin tissue model after UVB exposure; assay type: cell-based, human; settings: positive control, topical 24 hours after UVB 300 mJ/cm2; mean ± standard deviation; significantly different from Untreated (p < 0.05)
Method: Oil was extracted from heterotrophic ally cultivated Chlorella protothecoides followed by refining, bleaching and deodorization. The oil was tested for its ability to prevent thymine dimerization in a skin tissue model upon exposure to UVB (ultraviolet light of the B type). The testing system used for this assay was MatTek's EpiDerm tissue, a skin model that consists of normal human-derived epidermal keratinocytes cultured to form a multilayered, highly differentiated model of the human epidermis. For this study, the tissues were exposed to UVB (300 mJ/cm2) and then treated topically for 24 hours with the test material. Following the treatment the DNA was extracted from the EpiDerm tissues and assayed for thymine dimer content. […] The primary antibody was then detected using a secondary antibody conjugated to a fluorescent dye. […] With this method, the fluorescence intensity of each sample is proportional to the amount of the thymine dimers present in the sample. […] UVB lamp intensity was measured using a UVX radiometer with a probe specific for UVB (detects 260-360 nm, max absorbance at 310 nm, calibrated at 310 nm) to determine exposure times required for the appropriate UVB dose. […] Extracted DNA was quantified via a fluorometric assay. […]

MatTek's EpiDerm tissue [2] = test: MTT (viability) assay in EpiDerm skin tissue model after UVB exposure; assay type: cell-based, human; settings: positive control, topical 24 hours after UVB 300 mJ/cm2; mean ± standard deviation; significantly different from Untreated (p < 0.05)
Description: Oil was extracted from heterotrophically cultivated Chlorella protothecoides followed by refining, bleaching and deodorization. A skin tissue model was used to evaluate changes in tissue viability after exposure to UVB radiation. The testing system used for this assay was MatTek's EpiDerm tissue, a skin model that consists of normal human-derived epidermal keratinocytes cultured to form a multilayered, highly differentiated model of the human epidermis. For this study, the tissues were exposed to UVB (300 mJ/cm2) and then treated topically for 24 hours with the test material. Following the treatment tissue changes in tissue viability were determined using an MTT assay. […] Reduction of MTT by mitochondria in viable cells results in the formation of insoluble purple formazin crystals that are extracted from the cells with isopropanol and quantified spectrophotometrically. […] UVB lamp intensity was measured using a UVX radiometer with a probe specific for UVB (detects 260-360 nm, max absorbance at 310 nm, calibrated at 310 nm) to determine exposure times required for the appropriate UVB dose. […] After the extraction, a 200 μl sample of the isopropanol/MTT mixture was transferred to a 96-well plate and the absorbance of the sample was read at 540 nm with a plate reader using 200 μl of isopropanol as the blank. […] Values are expressed as means±standard deviation.

Cc1c(C)c2c(c(C)c1O)CCC(C)(C(=O)O)O2 (centres unmarked) [Trolox, 6-hydroxy-2,5,7,8-tetramethylchroman-2-carboxylic acid]
Thymine Dimer Formation, Corrected RFU (MatTek's EpiDerm tissue [1]): 5198 ± 513 RFU
Viability (Percent of Non-UVB Exposed) (MatTek's EpiDerm tissue [2]): 100 ± 1.3% of Non-UVB Exposed
